Data: US6893846B2, “Primers for use in detecting beta-lactamases” (priority 1998, dated 2005)

Tests used:
[1] = tested on: E. coli HB101 transformant (17 kb plasmid); settings: disk diffusion, Tr (17 kb) = transformant E. coli HB101
[2] = tested on: P. mirabilis; assay: Agar dilution MIC, South African isolates; assay type: cell-based, Proteus mirabilis; settings: 4 strains, tzp with tazobactam 4 μg/ml
How it was run: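 Clinical isolates from South African hospitals, intermediate or resistant to cefotaxime or ceftazidime and lacking inducible beta-lactamases, were tested by NCCLS M7-T2 agar dilution. Quality-control strains E. coli ATCC 25922 and 35218, P. aeruginosa ATCC 27853 and S. aureus ATCC 29213 were run alongside. Results were interpreted by NCCLS criteria.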

[3] = biological target: single beta-lactamase in P. mirabilis cell extracts (Escherichia coli, UniProt P62593, E102K/R162S); assay: Spectrophotometric hydrolysis assay on crude beta-lactamase extracts; settings: P. mirabilis Pit 85 extract, beta-lactamase pI 5.6; 100 μM substrate
[4] = tested on: E. coli C600 transconjugant; settings: disk diffusion, Tc = transconjugate E. coli C600
[5] = tested on: E. aerogenes; assay: Double-disk potentiation test; assay type: cell-based, Enterobacter aerogenes; settings: all the E. aerogenes strains selected; potentiation by clavulanic acid
From the text: This test described by Jarlier et al., Rev. Infect. Dis.

[6] = biological target: beta-lactamases in sonic extracts of P. mirabilis (Escherichia coli, UniProt P62593, E102K/R162S); assay: Isoelectric focusing overlay: cefotaxime hydrolysis and inhibitors; settings: beta-lactamase pI 5.6 (TEM-10 or 26), 0.75 μg/ml cefotaxime

CO/N=C(\C(=O)N[C@@H]1C(=O)N2C(C(=O)O)=C(COC(C)=O)CS[C@H]12)c1csc(N)n1 [cefotaxime]
Zone Size [1]: 34 mm
MIC range [2]: 0.25 to 0.5 µg/mL
Hydrolysis [3]: 5 nmol of substrate hydrolyzed/m
Zone Size [4]: 12 mm
double disk test [5]: positive
ctx hydrolysis [6]: Yes
